Measurements: patent US12629385B2, “Stable AST-3424 injection preparation and preparation method” (OBI PHARMA, INC., priority 2019, dated 2026)

What was measured:
[1] = Study on solution stability of AST-3424 in different solutions (HPLC content, pH); format: physicochemical
Description: Approximate 107.32 mg of AST-3424 (50% v/v, ethanol) was measured, and put in 50-ml volumetric flasks, to which solvents (organic solvents, buffer solutions, or purified water) were added to the scale, respectively. At each predetermined time point, 1 ml of the sample was measured for HPLC analysis. If API was stable in different pH solutions, the sampling time would be extended, e.g., 5 days or longer.
(§1) For samples used for the assay in the solubility study, about 1 ml of the culture medium was measured, then the resultant was centrifuged at 10000 rpm for 10 min, and the clear solution in […] was collected for HPLC analysis. For the study on solution stability, the samples could be directly injected into HPLC for analysis.
(§2) Content determination by HPLC method: AST-3424 was used as an external standard for quantitation.
UVDAD detector: wavelength: 230 nm. C18 column, column temperature: 25° C.
• A: 10 mmol/L ammonium acetate solution obtained by dissolving ammonium acetate in a mixed solvent of 95% water and 5% acetonitrile by volume; • B: 8 mmol/L ammonium acetate solution obtained by dissolving ammonium acetate in a mixed solvent of 95% acetonitrile and 5% water by volume;
Gradient elution was performed.

[2] = Solubility test of AST-3424 at 25° C. (shaking incubator, HPLC content, pH); format: physicochemical; settings: for Content (solubility study): 25° C.
Description: An appropriate amount of AST-3424 (hereinafter referred to as the active pharmaceutical ingredient or API) was measured, and put in a suitable container containing 40 ml of the above solution (20 ml for an organic solvent) until there were excessive AST-3424 oil droplets in the solution.
The samples were placed in a constant-temperature shaking incubator, the temperature of which was maintained at 25° C. The samples were shaken at an appropriate speed (100 rpm). Sampling was carried out at each predetermined time point as listed in Table 1, and the pH was examined. Then, the samples were centrifuged (10000 rpm, 10 min), and diluted to a concentration suitable for HPLC analysis (note: accurately recording the dilution ratio after the test) by adding the corresponding solution or organic solvent (dissolving API for solubility study), so as to obtain solubility data.
as §1, §2
According to the results of solution stability, AST-3424 was very unstable in the pH4.5 acetate buffer. Therefore, the solubility was tested in the pH6.8 phosphate buffer, the pH7.4 phosphate buffer, the pH10.0 alkaline borate buffer, and the purified water. An appropriate amount of AST-3424 was weighed and put into 40 mL of medium (ethanol/propylene glycol: 8 mL, 50:50V/V) until there were excessive floccules in the solution. If the solubility of API in the aqueous solution was greater than 2% (20 mg/ml), there was no need to add more API.

## C[C@H](OP(=O)(N1CC1)N1CC1)c1ccc([N+](=O)[O-])c(Oc2cccc(C(=O)N(C)C)c2)c1 [AST-3424, (S)-1-(3-(3-N,N-dimethylaminocarbonyl)phenoxyl-4-nitrophenyl)-1-ethyl-N,N′-bis(ethylene)phosphoramidate]
[1]; AST-3424 solution in pH 4.5 acetate buffer, 0 h
  pH value: 4.497
[1]; AST-3424 solution in pH 4.5 acetate buffer, 72 h
  pH value: 4.477
[1]; AST-3424 solution in pH 6.8 phosphate buffer, 0 h
  pH value: 6.815
[1]; AST-3424 solution in pH 6.8 phosphate buffer, 72 h
  pH value: 6.855
[1]; AST-3424 solution in pH 7.4 phosphate buffer, 0 h
  pH value: 7.481
[1]; AST-3424 solution in pH 7.4 phosphate buffer, 72 h
  pH value: 7.534
[1]; AST-3424 solution in pH 10.0 alkaline borate buffer, 0 h
  pH value: 9.984
[1]; AST-3424 solution in pH 10.0 alkaline borate buffer, 72 h
  pH value: 10.023
[1]; AST-3424 solution in purified water, 0 h
  pH value: 5.152
[1]; AST-3424 solution in purified water, 72 h
  pH value: 6.435
[1]; Ethanol/propylene glycol (50:50, v/v), 0 h, room temperature
  Content: 1.295 mg/mL
[1]; Ethanol/propylene glycol (50:50, v/v), 1 h, room temperature
  Content: 1.287 mg/mL
[1]; Ethanol/propylene glycol (50:50, v/v), 4 h, room temperature
  Content: 1.287 mg/mL
[1]; Ethanol/propylene glycol (50:50, v/v), 8 h, room temperature
  Content: 1.287 mg/mL
[1]; Ethanol/propylene glycol (50:50, v/v), 24 h, room temperature
  Content: 1.302 mg/mL
[1]; Ethanol/propylene glycol (50:50, v/v), 48 h, room temperature
  Content: 1.284 mg/mL
[1]; Ethanol/propylene glycol (50:50, v/v), 72 h, room temperature
  Content: 1.275 mg/mL
[1]; Ethanol, 0 h, room temperature
  Content: 1.238 mg/mL
[1]; Ethanol, 1 h, room temperature
  Content: 1.280 mg/mL
[1]; Ethanol, 4 h, room temperature
  Content: 1.246 mg/mL
[1]; Ethanol, 8 h, room temperature
  Content: 1.240 mg/mL
[1]; Ethanol, 24 h, room temperature
  Content: 1.240 mg/mL
[1]; Ethanol, 48 h, room temperature
  Content: 1.278 mg/mL
[1]; Ethanol, 72 h, room temperature
  Content: 1.236 mg/mL
[1]; Purified water, 0 h, room temperature
  Content: 1.186 mg/mL
[1]; Purified water, 1 h, room temperature
  Content: 1.126 mg/mL
[1]; Purified water, 4 h, room temperature
  Content: 1.056 mg/mL
[1]; Purified water, 8 h, room temperature
  Content: 1.005 mg/mL
[1]; Purified water, 24 h, room temperature
  Content: 0.918 mg/mL
[1]; Purified water, 48 h, room temperature
  Content: 0.860 mg/mL
[1]; Purified water, 72 h, room temperature
  Content: 0.810 mg/mL
[1]; pH4.5 acetate buffer
  Solution stability: very unstable
[1]; pH 4.5 acetate buffer, 0 h, room temperature
  Content: 0.673 mg/mL
[1]; pH 4.5 acetate buffer, 1 h, room temperature
  Content: 0.413 mg/mL
[1]; pH 4.5 acetate buffer, 4 h, room temperature
  Content: 0.218 mg/mL
[1]; pH 4.5 acetate buffer, 8 h, room temperature
  Content: 0.093 mg/mL
[1]; pH 4.5 acetate buffer, 24 h, room temperature
  Content: 0.013 mg/mL
[1]; pH 6.8 phosphate buffer, 0 h, room temperature
  Content: 1.202 mg/mL
[1]; pH 6.8 phosphate buffer, 1 h, room temperature
  Content: 1.200 mg/mL
[1]; pH 6.8 phosphate buffer, 4 h, room temperature
  Content: 1.193 mg/mL
[1]; pH 6.8 phosphate buffer, 8 h, room temperature
  Content: 1.185 mg/mL
[1]; pH 6.8 phosphate buffer, 24 h, room temperature
  Content: 1.168 mg/mL
[1]; pH 6.8 phosphate buffer, 48 h, room temperature
  Content: 1.145 mg/mL
[1]; pH 6.8 phosphate buffer, 72 h, room temperature
  Content: 1.102 mg/mL
[1]; pH7.4 phosphate buffer
  Solution stability: stable
[1]; pH 7.4 phosphate buffer, 0 h, room temperature
  Content: 1.267 mg/mL
[1]; pH 7.4 phosphate buffer, 1 h, room temperature
  Content: 1.266 mg/mL
[1]; pH 7.4 phosphate buffer, 4 h, room temperature
  Content: 1.266 mg/mL
[1]; pH 7.4 phosphate buffer, 8 h, room temperature
  Content: 1.262 mg/mL
[1]; pH 7.4 phosphate buffer, 24 h, room temperature
  Content: 1.262 mg/mL
[1]; pH 7.4 phosphate buffer, 48 h, room temperature
  Content: 1.249 mg/mL
[1]; pH 7.4 phosphate buffer, 72 h, room temperature
  Content: 1.228 mg/mL
[1]; pH 10.0 (alkaline borate buffer), 0 h, room temperature
  Content: 1.265 mg/mL
[1]; pH 10.0 (alkaline borate buffer), 1 h, room temperature
  Content: 1.265 mg/mL
[1]; pH 10.0 (alkaline borate buffer), 4 h, room temperature
  Content: 1.261 mg/mL
[1]; pH 10.0 (alkaline borate buffer), 8 h, room temperature
  Content: 1.258 mg/mL
[1]; pH 10.0 (alkaline borate buffer), 24 h, room temperature
  Content: 1.261 mg/mL
[1]; pH 10.0 (alkaline borate buffer), 48 h, room temperature
  Content: 1.257 mg/mL
[1]; pH 10.0 (alkaline borate buffer), 72 h, room temperature
  Content: 1.242 mg/mL
[1]; room temperature, ethanol, ethanol/propylene glycol=1/1, pH7.4 and pH10.0 buffer solutions
  Time for which API was stable in solution: at least 72 h
[1]; room temperature, pH4.5 solution and water
  Solution stability: unstable
[1]; room temperature, pH6.8 solution
  Time for which API was stable in solution: at least 24 h
[1]; water and pH6.8 phosphate buffer
  Solution stability: relatively poor stability
[2]; Ethanol/propylene glycol (50:50, v/v), 1 h
  Content (solubility study): 271.28 mg/mL
[2]; Ethanol/propylene glycol (50:50, v/v), 8 h
  Content (solubility study): 301.33 mg/mL
[2]; Ethanol/propylene glycol (50:50, v/v), 24 h
  Content (solubility study): 298.85 mg/mL
[2]; alcohol solvents such as ethanol/propylene glycol (50:50, v/v)
  Solubility, description of terms: Freely soluble
[2]; excess AST-3424 in pH 6.8 phosphate buffer, 1 h
  pH value (solubility study): 6.856
[2]; excess AST-3424 in pH 6.8 phosphate buffer, 4 h
  pH value (solubility study): 6.837
[2]; excess AST-3424 in pH 6.8 phosphate buffer, 8 h
  pH value (solubility study): 6.855
[2]; excess AST-3424 in pH 6.8 phosphate buffer, 24 h
  pH value (solubility study): 6.841
[2]; excess AST-3424 in pH 6.8 phosphate buffer, 48 h
  pH value (solubility study): 6.860
[2]; excess AST-3424 in pH 7.4 phosphate buffer, 1 h
  pH value (solubility study): 7.477
[2]; excess AST-3424 in pH 7.4 phosphate buffer, 4 h
  pH value (solubility study): 7.462
[2]; excess AST-3424 in pH 7.4 phosphate buffer, 8 h
  pH value (solubility study): 7.475
[2]; excess AST-3424 in pH 7.4 phosphate buffer, 24 h
  pH value (solubility study): 7.455
[2]; excess AST-3424 in pH 7.4 phosphate buffer, 48 h
  pH value (solubility study): 7.482
[2]; excess AST-3424 in pH 10.0 alkaline borate buffer, 1 h
  pH value (solubility study): 9.998
[2]; excess AST-3424 in pH 10.0 alkaline borate buffer, 4 h
  pH value (solubility study): 9.980
[2]; excess AST-3424 in pH 10.0 alkaline borate buffer, 8 h
  pH value (solubility study): 9.971
[2]; excess AST-3424 in pH 10.0 alkaline borate buffer, 24 h
  pH value (solubility study): 9.932
[2]; excess AST-3424 in pH 10.0 alkaline borate buffer, 48 h
  pH value (solubility study): 9.952
[2]; excess AST-3424 in purified water, 1 h
  pH value (solubility study): 5.004
[2]; excess AST-3424 in purified water, 4 h
  pH value (solubility study): 5.651
[2]; excess AST-3424 in purified water, 8 h
  pH value (solubility study): 5.971
[2]; excess AST-3424 in purified water, 24 h
  pH value (solubility study): 6.378
[2]; excess AST-3424 in purified water, 48 h
  pH value (solubility study): 6.512
[2]; methanol, propanol, butanol, ethylene glycol, propylene glycol, glycerol, 1,3-butanediol, 1,2-butanediol
  Solubility (initial investigation, words): good solubility
[2]; pH 6.8 (phosphate buffer), 4 h
  Content (solubility study): 22.92 mg/mL
[2]; pH 6.8 (phosphate buffer), 8 h
  Content (solubility study): 23.03 mg/mL
[2]; pH6.8, pH7.4 and pH10.0 media
  pH of the solutions of API at different time points: remained unchanged
[2]; pH 7.4 (phosphate buffer), 1 h
  Content (solubility study): 23.65 mg/mL
[2]; pH 7.4 (phosphate buffer), 4 h
  Content (solubility study): 23.47 mg/mL
[2]; pH 7.4 (phosphate buffer), 8 h
  Content (solubility study): 23.56 mg/mL
[2]; pH 7.4 (phosphate buffer), 24 h
  Content (solubility study): 23.65 mg/mL
[2]; pH 10.0 (alkaline borate buffer), 1 h
  Content (solubility study): 23.50 mg/mL
[2]; pH 10.0 (alkaline borate buffer), 4 h
  Content (solubility study): 23.56 mg/mL
[2]; pH 10.0 (alkaline borate buffer), 8 h
  Content (solubility study): 23.48 mg/mL
[2]; pH 10.0 (alkaline borate buffer), 24 h
  Content (solubility study): 23.49 mg/mL
[2]; water, pH6.8 phosphate buffer, pH7.4 phosphate buffer, pH10.0 alkaline borate buffer
  Solubility, description of terms: sparingly soluble
